Reference: patent US11445912B2, “Robust myocardial blood oxygen level dependent magnetic resonance imaging with long acting coronary vasodilators” (Cedars-Sinai Medical Center, priority 2015, dated 2022)
Read-outs that look alike come from different tables or passages of the source.

How the values were obtained:
[1] = cited from earlier work; for terminal half-life: extended vasodilatory state
Canines [2] = experiment: Myocardial BOLD CMR, 2D T2 maps post regadenoson (Example 1); format: in vivo
Procedure: (§1) Canines (n=7) were studied in a PET/MR system. MR acquisitions were used to generate short-axis 2D T2 maps; and the PET acquisitions following ^[…]-ammonia infusion were used to quantify myocardial blood flow (MBF). Initially, 2D T2 maps and PET signals were acquired at rest. Subsequently, regadenoson (2.5 μg/kg) was administrated. T2 maps were acquired at 2- and 10-mins p.r.a and PET signals were acquired at 10-mins p.r.a. Standard deviation (a) of myocardial T2 values was measured at rest, 2- and 10-mins p.r.a from T2 maps and were used to determine Myocardial BOLD Variability (MBV, defined as σT2(stress)/σT2(rest)) at 2- and 10-min p.r.a. Similarly, using the mean T2 values, Myocardial BOLD Response (MBR, defined as T2(stress)/T2(rest)) was computed at 10-mins p.r.a. PET images were analyzed with qPET software to determine MBF and MPR at rest and 10-mins p.r.a and were regressed against MBR.

Canines [3] = experiment: 13N-ammonia PET myocardial blood flow at rest and post regadenoson, PET/MR (Example 1); format: in vivo
Procedure: as §1

healthy human volunteers = experiment: Repeated BOLD CMR, coronary dynamic parameters from mono-exponential model (Example 2); format: in vivo; conditions: global myocardium
Procedure: (§2) BOLD images were acquired at different time points before and after regadenoson administration to sample the rest and stress images, respectively. After bolus regadenoson injection, multiple stress images were acquired to sample the coronary dynamics curve for 30 minutes. All stress images were registered to the rest images with a non-rigid motion correction algorithm (Avants B B, Tustison N J, Song G, Cook P A, Klein A, Gee J C. A reproducible evaluation of ANTs similarity metric performance in brain image registration. Neuroimage 2011; 54:2033-44) to correct for motion-induced miss match between acquisitions. Motion corrected images were used to extract the CDPs throughout the stress period using a mono-exponential model (Felmlee M A, Morris M E, Mager D E. Mechanism-based pharmacodynamic modeling. Methods in molecular biology 2012; 929:583-600) (T2(t)=T2o+ΔT2max exp(−t/τ)). A flow chart of the experimental setup is depicted in FIG. 4.
(§3) In healthy volunteers and intact dogs, global CDPs were extracted from the myocardium. Maximum BOLD response was derived with CDPs (MBRCDP=ΔT2max/T2o×100%) and compared with conventional myocardial BOLD response (MBRcon), which was derived as the T2 elevation from rest to 2 minutes after regadenoson administration (MBRconv=[(StressT2^2min/Rest T2)−1)×100%]. In the animals with coronary impairment, CDPs were measured in segmental and pixel-wise manner. Pixel-wised CDPs between remote and affected territories were segmented using SVMs to investigate the capability of separating diseased myocardium from the remote regions. In addition, CDPs were derived from subsets of BOLD images with different starting time points to probe the optimized setup of detecting affected territories. Details of each step are described in the following sections.
(§4) Experimental Subjects and animal preparation: We studied healthy human volunteers (n=6), intact dogs (n=7) and dogs with chronic infarctions (n=1). During imaging studies in animals, all animals were mechanically ventilated and anesthetized with propofol. In the dog with chronic infarction, the animal underwent an open chest ischemia reperfusion protocol (3 hours of ischemia followed by reperfusion), followed by 8-week recovery prior to imaging.
(§5) Image acquisition: Human studies were performed on a 3.0 T clinical MM system (MAGNETOM Verio®, Siemens Healthcare, Erlangen, Germany) and the animals were studied on a 3T whole body PET MR system (Biograph mMR, Siemens Healthcare, Erlangen, Germany). In all subjects, BOLD images were acquired with a commercially available 2D T2 mapping sequence {Giri, 2009 #820}. In all studies, after localization and shimming, rest BOLD images were acquired under baseline followed by a bolus regadenoson injection. Post regadenoson administration, BOLD CMR images were acquired between 2 to 30 minutes after regadenoson injection with an interval of 1-5 minutes depending on the physiological and imaging condition. In the animal with chronic infarction, simultaneous ^13N ammonia PET images were acquired at 2 minutes post regadenoson administration to validate the hyperemic response from regadenoson. In addition, LGE images were acquired to identify the infarcted territories after all BOLD acquisitions were completed. Block representations of imaging protocols are illustrated in FIG. 5. Imaging parameters are listed as the following: T2 mapping: TR/TE=2.9 ms/1.1 ms, iPAT=2, partial Fourier=3/4, FA=35°, BW=1184 Hz/pixel, 86 lines per heartbeat (simulated rate 60/s), trigger pulse=4, FOV=288×360 mm^2, matrix size=154×192, and voxel size=2.5×1.7×6.0 mm^3, T2 preparation (as TEs)=0, 24, 55 ms.
(§6) Image Processing: The series of BOLD images acquired post regadenoson administration were aligned using the advanced normalization tools (ANTS software). Rest images were used as the reference for registration. […]

intact dogs [4] = experiment: as above; format: in vivo; conditions: global myocardium
Procedure: as §2, §3, §4, §5, §6

infarcted dogs [5] = experiment: 13N-NH3 PET myocardial perfusion reserve, remote vs affected zones (Example 3); format: in vivo
Procedure: (§7) Intact (n=7) and infarcted (n=2) dogs were studied in a hybrid PET/MR system. 2D BOLD (T2 maps), LGE and ^13N—NH3 PET images were acquired at rest and at post-regadenoson administration (p.r.a.). T2 maps post-regadenoson administration (p.r.a.) were repeatedly acquired over 30 mins and were registered to T2 maps at rest. These time-dependent T2 maps were then used to model the coronary relaxation as T2(t)=T2o+ΔT2max exp(−t/τ), where T2o, ΔT2max and τ are fit parameters with T2o=T2 at rest; ΔT2max=maximal T2 change from rest; and τ=time constant of coronary relaxation. Maximum BOLD response from CRM was estimated (MBRCRM=ΔT2max/T2o×100%) and compared to conventional myocardial BOLD response [MBRcon=(T2^2min−Rest T2)/Rest T2×100%, where T2^2min=myocardial T2 at 2 min p.r.a and Rest T2=T2 prior to regadenoson injection] using a regression model. In infarcted dogs, affected zones were identified using Late Gadolinium Enhancement (LGE). BOLD contrast-to-noise ratio (CNR) between remote and affected zones (CNR=(μMBRRemote−μMBRAffected)/σMBRRemote, where μ and σ are the mean and std dev) were estimated for MBRCRM and MBRcon and compared. MBRs were validated with perfusion reserve from PET myocardial perfusion reserve (MPR).

infarcted dogs [6] = experiment: Repeated BOLD CMR with coronary relaxation model, remote vs affected zones (Example 3); format: in vivo
Procedure: as §7

[7] = system: dog with chronic infarction; experiment: 13N ammonia PET myocardial perfusion reserve in infarcted animal (Example 2); format: in vivo; conditions: PET at 2 minutes post regadenoson
Procedure: as §5, with “Imaging parameters are listed as the following: T2 mapping: TR/TE=2.9 ms/1.1 ms, iPAT=2, partial Fourier=3/4, FA=35°, BW=1184 Hz/pixel, 86 lines per heartbeat (simulated rate 60/s), trigger pulse=4, FOV=288×360 mm^2, matrix size=154×192, and voxel size=2.5×1.7×6.0 mm^3, T2 preparation (as TEs)=0, 24, 55 ms.” left out
In addition, simultaneously acquired quantitative PET images were used to derive myocardial perfusion reserve (MPR) with a clinical validated software (QPET, Cedars-Sinai Medical Center, Los Angeles) and to validate the reduced MPR in the infarcted myocardium.

intact dogs [8] = experiment: Repeated BOLD CMR with coronary relaxation model (Example 3); format: in vivo
Procedure: as §7

intact dogs [9] = experiment: 13N-NH3 PET myocardial perfusion reserve (Example 3); format: in vivo; conditions: p.r.a
Procedure: as §7

[10] = system: dog with chronic infarction; experiment: Repeated BOLD CMR, coronary dynamic parameters in remote and affected myocardium (Example 2); format: in vivo
Procedure: as §2, §3, §4
Image acquisition: Human studies were performed on a 3.0 T clinical MM system (MAGNETOM Verio®, Siemens Healthcare, Erlangen, Germany) and the animals were studied on a 3T whole body PET MR system (Biograph mMR, Siemens Healthcare, Erlangen, Germany). In all subjects, BOLD images were acquired with a commercially available 2D T2 mapping sequence {Giri, 2009 #820}. In all studies, after localization and shimming, rest BOLD images were acquired under baseline followed by a bolus regadenoson injection. […]

[11] = 10-min post regadenoson administration, 2.5 μg/kg
[12] = affected (infarcted) myocardium

For `CCNC(=O)[C@H]1O[C@@H](n2cnc3c(N)nc(C#CC[C@H]4CC[C@H](C(=O)OC)CC4)nc32)[C@H](O)[C@@H]1O` [apadenoson], the terminal half-life [1] is given as 5 min.

In the case of `Nc1nc(N/N=C/C2CCCCC2)nc2c1ncn2[C@@H]1O[C@H](CO)[C@@H](O)[C@H]1O` [binodenoson], the terminal half-life [1] is listed as 10 to 120 min.

In the case of `OCCN(CCO)c1nc(N2CCCCC2)c2nc(N(CCO)CCO)nc(N3CCCCC3)c2n1` [dipyridamole], the terminal half-life ([1]; units printed within the range) is given as 40 to 600 min.

With `CNC(=O)c1cnn(-c2nc(N)c3ncn([C@@H]4O[C@H](CO)[C@@H](O)[C@H]4O)c3n2)c1` [regadenoson] the “Myocardial T2” value (Canines [2]; [11]) was 40.4 ± 1.7 ms, the “T2 elevation relative to rest” value (Canines [2]; 10 min post regadenoson administration) was 9% and the “myocardial blood flow relative to rest” value (Canines [3]; 10-15 minutes post regadenoson infusion) was “above 2 fold”. For the same compound, the “myocardial blood flow (MBF)” value (Canines [3]; [11]) was 1.8 ± 0.9 mL/min/g, the terminal half-life [1] was 33 to 108 min and the “second phase of pharmacological half-life” value ([1]; in vivo) was “approximately 30 minutes”. For the same compound, the “MBRCDP (ΔT2max/T2o×100%)” value (healthy human volunteers) was 26.5%, the “MBRcon (T2 elevation from rest to 2 minutes after regadenoson)” value (healthy human volunteers) was 12.0% and the “ΔT2max (maximum BOLD stimulation amplitude)” value (healthy human volunteers) was 14.7 ms. The “τ (coronary relaxation time constant)” value (healthy human volunteers) was 35.6 min, the “MBRCDP (ΔT2max/T2o×100%)” value (intact dogs [4]) was 25.8% and the “MBRcon (T2 elevation from rest to 2 minutes after regadenoson)” value (intact dogs [4]) was 10.1%. For the same compound, the “ΔT2max (maximum BOLD stimulation amplitude)” value (intact dogs [4]) was 8.6 ms, the “τ (coronary relaxation time constant)” value (intact dogs [4]) was 38.5 min and the “MPRaffected (PET)” value (infarcted dogs [5]; Affected region) was 1.9±0.7. For the same compound, the “MPRremote (PET)” value (infarcted dogs [5]; Remote region) was 3.7±0.6, the MBRCRM (infarcted dogs [6]; Affected region) was 1±10% and the MBRcon (infarcted dogs [6]; Affected region) was 5±7%. The MBRCRM (infarcted dogs [6]; Remote region) was 27±6%, the MBRcon (infarcted dogs [6]; Remote region) was 15±5% and the “myocardial perfusion reserve (MPR)” value ([7]; infarcted territories) was 1.9. For the same compound, the “myocardial perfusion reserve (MPR)” value ([7]; remote myocardium) was 3.7, the “MBRCRM (ΔT2max/T2o×100%)” value (intact dogs [8]) was 27±16% and the “MBRcon ((T2 2min−Rest T2)/Rest T2×100%)” value (intact dogs [8]; 2 min p.r.a) was 12±6%. For the same compound, the “ΔT2max (maximal T2 change from rest)” value (intact dogs [8]; CRM fit) was 14.7 ± 5.8 ms, the “τ (time constant of coronary relaxation)” value (intact dogs [8]; CRM fit) was 35.5 ± 26.8 min and the “PET myocardial perfusion reserve (MPR)” value (intact dogs [9]) was 3.0±0.6. The “coronary relaxation time constant (τ)” value ([10]; Remote myocardium) was 29.6 min, the “maximum T2 response (ΔT2max)” value ([10]; Remote myocardium) was 5.4 ms and the “coronary relaxation time constant (τ)” value [10, 12] was 54.09 min. The “maximum T2 response (ΔT2max)” value [10, 12] was 1.6 ms.
